In patent publication US8563603B2, “Polycyclic compounds and methods related thereto” (Cornell University, priority 2008, dated 2013):

How the values were obtained:
[1] = system: breast cancer cell lines; assay: Alamar Blue cytotoxicity, averaged across cell lines or cell line not stated; type: cell-based, human; details: averaged across cell lines
Method: (§1) Human breast carcinoma cell line lines; SKBR-3, BT20, MB-MDA-468, MB-MDA-453, MB-MDA-231, and MCF-7 and human cancer cell lines Calu-6, Hela, HCT-116, HT-29, and A-431, obtained from ATCC (Manassas, Va.), were cultured in Dulbecco's Modified Eagle's Medium (DMEM-Sigma D-564R) supplemented with 10% Fetal Calf Serum (heat-inactivated) and antibiotics (Antibiotic Antimycotic Solution 100×, Sigma A9909). Breast cancer cell lines were chosen based on their varying amount of Epidermal Growth Factor Receptors (EGFR). Cells were routinely propagated and cultured at 37° C. in a 100% relative humidified atmosphere consisting of 5% C02 and 95% air. Cells were trypsinized with 0.05% Trypsin-0.2% EDTA (w/v) solution. All experiments were repeated at least three times.
Cells were seeded onto a standard 96-well microtiter plate at a density of 2×10^4 cells/well in 100-μl tissue culture medium. […] Each well was evaluated at seven 10-fold dilutions starting from a high of 1000 ppm. […] Following a 48-h incubation period, extracted cells were evaluated using Alamar Blue, a fluorometric/colorimetric assay that measures cell proliferation by relying on the cells metabolic activity. […] Data were analyzed immediately by visualizing color densities and/or with a standard spectrophotometer at 540 nm.

[2] = system: Human breast cancer cell line MB-MDA-231; assay: Annexin V FITC / PI apoptosis detection by flow cytometry, 24 h; type: cell-based
Method: Human breast cancer cell line MB-MDA-231 were cultured in Dulbecco's Modified Eagle's medium (DMEM-Sigma, D-5648), supplemented with 10% (heat-inactivated) Fetal Bovine Serum (Atlanta Biologicals, Inc.) and Antibiotic Solution, 100× (Sigma A-9909). Cells were gown at 37° C., at 5-7% CO2, and 95% humidity and were obtained from the American Type Culture Collection (ATCC). Cells were trypsinized with 0.05% Trypsin-0.2% EDTA (w/v) solution (Invitrogen Corporation, Carlsbad, Calif.).
The induction of apoptosis in MB-MDA-231 was analyzed using a well-validated Annexin V FITC apoptosis detection kit (Calbiochem), Darzynkiewicz, 1998. The phosphatidylserine (PS)-specific dye Annexin-V is used to detect apoptotic-specific changes to the organization of phospholipids leading to exposure of PS on the cell surface that precedes nuclear breakdown, DNA fragmentation, and the appearance of most apoptosis-associated molecules. For these studies cells were seeded at 25×10^4 cells/1.5 ml in a 24 well microtiter plate. Cells were allowed to adhere to plates for 24 h, and then exposed to lignans of the present invention at 5-fold dilutions of 30 μl, 6 μl, and 1.2 μl per well for 24 h. Test compounds were mixed in solution using DMSO as vehicle (10 mg extract/1 ml DMSO). Camptothecin was used as a positive control. Following the incubation period 700 μl of suspended cells were transferred to 15 ml conical tubes. Cells that remained adhered to the 24-well plates were gently washed with PBS (137 mM NaCl, 2.7 mM KCL, 4.3 mM Na2HPO4-7H2O, 1.4 mM KH2PO4, adjusted to pH 7.4), trypsinized with 1 ml of solution (0.05% Trypsin—0.2% EDTA [w/v]), and resuspended with the suspended cells/media collected in the 15 ml conical tubes from the previous step. 10 μl of media-binding reagent and 1.25 μl Annexin V-FITC was added to the 15 ml conical tubes containing both the 700 μl of suspended cells and the resuspended cells and incubated at room temperature for 15 min, at 18-24° C., in the dark. Tubes were centrifuged for 5 minutes at 1000×g at room temperature. Media was removed and cells were gently resuspended in 0.5 ml cold 1×binding buffer (dilution; 5× Binding Buffer concentrate 1:5 with dH2O) and placed on ice. 10 μl of propidium iodide was added to each tube. Cells were placed on ice away from light and analyzed immediately by flow cytometry. The dual fluorescence emissions of the respective dyes were detected in cell preparations on a BD-Biosciences FACS Aria high-speed flow cytometer/cell sorter utilizing a quartz cuvette for interrogation. To quantify the Annexin V (FL1 at 518 nm) and propidium iodide (620 nm) signals, apoptosis-induced cells (CPT) stained with FITC only and apoptosis-induced cells (CPT) labeled with only propidium iodide were utilized. Necessary adjustments were made to minimize overlap between these two measurements. Typically, 10,000-20,000 cells were scored for each sample and classified as either viable, early apoptotic, or late apoptotic or necrotic. All experiments were repeated at least three times, each in duplicate.
The principal of the Annexin V/FITC assay is that, Annexin V, an anticoagulant protein, preferentially binds negatively charged phospholipids. Early in the apoptotic process, phospholipid asymmetry is disrupted leading to the exposure of phosphatidylserine (PS) on the outer leaflet of the cytoplasmic membrane. Annexin V binds to the negatively charged calcium-dependent PS. Conjugating FITC to Annexin V with simultaneous propidium iodide (PI) staining allows bivariate analysis of intact cells. Live, healthy cells are double negative, FITC (−)/PI (−), and are seen in the lower left quadrant [A3] of FACS cytograms. Cells that are FITC (+)/PI (−) [A4] are early apoptotic. Cell populations that are advanced apoptotic or necrotic are FITC (+)/PI (+) are located in quadrant [A2]. […]

[3] = system: cell line MD-MBA-231; assay: Cell cycle analysis by DNA content (hypotonic PI staining, flow cytometry); type: cell-based, human; details: 1.2, 6.0, 30.0 ppm; 24 h
Method: Twenty-four hours after exposure to compounds, 25×10^4 cells in 1.5 ml cells were simply re-suspended following either the Annexin V/FITC assay or the trypsin procedures. Cells were centrifuged at 1000-x g at room temperature and washed in 0.5 ml of hypotonic staining solution. Cells were kept a minimum of 30 min. at 4° C. in the dark. Samples were usually analyzed by flow cytometry on the same day or at 24 hrs. Resulting DNA distributions were analyzed for the proportion of cells in apoptosis and in G0/G1, S, and G2/M phases of the cell cycle. Singlet events were gated and 10,000-20,000 events were acquired within the gated region. All experiments were repeated at least three times, each in duplicate.
The cell cycle comprises steps that regulate the correct temporal sequence of events that control the growth, reproduction and differentiation of cells. The cell cycle consists of 4 phases: G0/G1, S (DNA synthesis), G2, and M (mitosis). In addition, checkpoints located in the cell cycle transition ensure that cell growth and division occur in response to appropriate signals and environment. When proliferating, if cells are subjected to DNA damage the cell cycle temporarily pauses either at G1, S or G2 phase. Arrest at these checkpoints prevents DNA replication and mitosis in the presence of unrepaired DNA damage and presumably allows time for DNA repair to occur. The proportion of cells that arrest in G1, S or G2 after damage depends on cell type, growth conditions, type of damage and the checkpoints operative in the cells. Shifts in the redistribution of phases of the cell cycle in response to various stimuli can be readily assessed by flow cytometry. DNA content analysis with the use of PI is one of the most common assays. The use of intercalating dyes to measure DNA content are the most common and are usually sufficient to determine relative shifts in the phases of the cell cycle. The hypotonic solution lyses the plasma membrane and prevents many of the aggregate problems associated with fixed cells. Propidium Iodide(PI) passes through permeabilized cell membranes and intercalates with cellular DNA. Therefore, the intensity of the PI signal is directly proportional to DNA content. DNA content experiments determine the percent induction of apoptosis and relative distribution of the cell cycle phases.
The percent of apoptotic cells (cells with fractional DNA content; sub G1 cells) were established by estimating the percentage of events showing up in sub G0. The Sub-G1 method relies on the fact that after DNA fragmentation, there are small fragments of DNA that may be eluted. However in order to be seen in the Sub G1 area, a cell must have lost enough DNA to appear there; so if cells enter apoptosis from the S or G2/M phase of the cell cycle or if there is an aneuploid population undergoing apoptosis, they may not appear in the Sub G1 peak. The number of events in sub G1 (number of nuclear fragments) provides no information on the # of cells undergoing apoptosis.

[4] = system: cancer cell lines; assay: Sulforhodamine B (SRB) assay, cell line not stated / average of all cell lines; type: cell-based, human; details: highest concentration; positive control averaged on all cell lines
Method: as §1
In addition to Alamar blue, Sulforhodamine B Assay (SRB) was used to determine inhibition by bound protein. Individual cell lines were seeded at varying cell densities as determined by growth rate. […] The absorbance of stained protein was read with an automated 96-well microtiter ELISA plate reader (SAFIRE) at 540 nm. Using absorbance measurement [time zero. (Tz)—control growth, and growth at each drug concentration level (Ti)], the percentage growth is calculated at each of the drug concentrations. Percent growth inhibition is calculated as: [(Ti−Tz)/Tz]×100 for concentration for which Ti<Tz.

Structure (SMILES)	concentration of cell death / greatest inhibition, positive controls [1]	early stage apoptosis, FITC (+)/PI (−) staining, significance ([2]; 1.2, 6.0, 30.0 ppm, 24 h)	early apoptosis activity increased over the spirocyclic lignans ([2]; all doses)	% events in sub G0 (apoptotic events) [3]	effect on cell population in G2/M [3]	effect on cell populations in S-phase, significance [3]	singlet count [3]	inhibited cell growth [4]
CC[C@@]1(O)C(=O)OCc2c1cc1n(c2=O)Cc2cc3ccccc3nc2-1 [Camptothecin, reference compound]	7.81 ppm	significantly increased	at least 5%	increased and significantly induced apoptotic activity at 30.0 ppm	remained at levels with untreated cells at all doses	significant at 6.0 and 30.0 ppm	reached minimal levels at 30 ppm	–
O=c1[nH]cc(F)c(=O)[nH]1 [5-fluorouracil, 5-Fluorouracil]	cell death at the same lower limits as cell lines BT20 and MB-MDA-453	–	–	–	–	–	–	approximately 60%
